Patent publication US20100056524A1, “Compound” (priority 2008, published 2010)
Counter-ions that a name gives are not always drawn. Like-named read-outs stand apart in the source and are kept apart here.

Assays:
PKD1 = molecular target: T1, PKD1 (Homo sapiens, UniProt Q15139); test: PKD1 protein kinase assay; type: biochemical; settings: for remaining activity at 10 µM: 10 μM compound; for residual kinase activity PKD1: 1 μm compound; for remaining activity at 1 µM: 1 μM compound
T1 construct: All protein kinases were of human origin and encoded full length proteins, unless indicated otherwise; made in house
T1 sequence (Q15139 1-912): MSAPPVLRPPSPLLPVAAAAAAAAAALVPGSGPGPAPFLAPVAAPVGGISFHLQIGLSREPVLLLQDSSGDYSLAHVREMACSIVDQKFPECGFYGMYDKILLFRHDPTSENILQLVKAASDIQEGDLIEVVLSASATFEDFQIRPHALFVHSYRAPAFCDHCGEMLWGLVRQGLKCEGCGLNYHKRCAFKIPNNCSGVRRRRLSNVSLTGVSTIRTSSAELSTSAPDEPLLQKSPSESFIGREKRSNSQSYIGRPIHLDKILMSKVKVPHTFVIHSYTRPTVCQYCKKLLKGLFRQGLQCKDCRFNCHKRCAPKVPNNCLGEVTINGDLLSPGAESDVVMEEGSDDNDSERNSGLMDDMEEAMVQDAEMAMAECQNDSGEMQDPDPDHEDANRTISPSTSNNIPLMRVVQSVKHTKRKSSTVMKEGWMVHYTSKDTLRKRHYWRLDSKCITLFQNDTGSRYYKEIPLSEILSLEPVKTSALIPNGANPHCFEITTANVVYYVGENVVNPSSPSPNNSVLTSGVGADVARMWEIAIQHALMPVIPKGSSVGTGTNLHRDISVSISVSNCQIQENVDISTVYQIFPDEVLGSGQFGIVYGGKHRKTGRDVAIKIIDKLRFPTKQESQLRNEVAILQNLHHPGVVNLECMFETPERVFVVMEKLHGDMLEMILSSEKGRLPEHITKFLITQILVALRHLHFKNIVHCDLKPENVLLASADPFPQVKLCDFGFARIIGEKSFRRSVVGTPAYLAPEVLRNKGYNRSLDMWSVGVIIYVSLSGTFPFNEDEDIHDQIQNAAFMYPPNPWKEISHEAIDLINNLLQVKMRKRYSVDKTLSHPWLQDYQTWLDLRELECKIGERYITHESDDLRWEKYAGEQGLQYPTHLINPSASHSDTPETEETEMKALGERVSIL
Text: (§1) All protein kinases were of human origin and encoded full length proteins, unless indicated otherwise. They were either expressed as glutathione S-transferase (GST) fusion proteins in Escherichia Coli or as hexahistidine (His6)-tagged proteins in insect Sf21 cells. GST fusion proteins were purified by affinity chromatography on glutathione-Sepharose, and His6-tagged proteins on nickel/nitriloacetate-agarose. The procedures for expressing some of the protein kinases used herein have been detailed previously.^8,9 The following sections outline the DNA vectors synthesised and the procedures used to express and purifying protein kinases that have not been reported previously.
(§2) All assays (25.5 μl) were carried out at room temperature (21° C.) and were linear with respect to time and enzyme concentration under the conditions used. Assays were performed for 30 min using Multidrop Micro reagent dispensers (Thermo Electron Corporation, Waltham, Mass. 02454, USA) in a 96-well format. The concentration of magnesium acetate in the assays was 10 mM and the [γ-33P] ATP (800 cpm/pmol) was used at 5, 20 or 50 μM as indicated, in order to be at or below the Km for ATP for each enzyme. Protein kinases assayed at 5 μM ATP were: —ERK1, ERK8, PKBα, MARK3, Aurora C. Protein kinases assayed at 20 μM ATP were: —JNK1, PDK1, CHK1, CHK2, CDK2 and Aurora B. Protein kinases assayed at 50 μM ATP were: —MNK2, IKKepsilon and TBK1.
(§3) The assays were initiated with MgATP, stopped by addition of 5 μl of 0.5 M orthophosphoric acid and spotted on to P81 filterplates using a unifilter harvester (PerkinElmer, Boston, Mass. 02118, USA). The IC50 values of inhibitors were determined after carrying out assays at 10 different concentrations of each compound.
(§4) Unless stated otherwise, enzymes were diluted in 50 mM Tris/HCl pH 7.5, 0.1 mM EGTA, 1 mg/ml BSA, 0.1% (v/v) 2-mercaptoethanol and assayed in 50 mM Tris/HCl pH 7.5, 0.1 mM EGTA, 0.1% (v/v) 2-mercaptoethanol.

RSK1 = molecular target: T2, RSK1 (Homo sapiens, UniProt Q15418); test: RSK1 protein kinase assay; type: biochemical; settings: for remaining activity at 10 µM: 10 μM compound; for residual kinase activity RSK1: 1 μm compound; for remaining activity at 1 µM: 1 μM compound
T2 construct: All protein kinases were of human origin and encoded full length proteins, unless indicated otherwise; made in house
Text: as §1, §2, §3, §4

[1] = read-out: residual kinase activity PKD1
[2] = read-out: residual kinase activity RSK1
[3] = PKD1, read-out: residual kinase activity
[4] = RSK1, read-out: residual kinase activity

T2 sequence (Q15418 whole entry): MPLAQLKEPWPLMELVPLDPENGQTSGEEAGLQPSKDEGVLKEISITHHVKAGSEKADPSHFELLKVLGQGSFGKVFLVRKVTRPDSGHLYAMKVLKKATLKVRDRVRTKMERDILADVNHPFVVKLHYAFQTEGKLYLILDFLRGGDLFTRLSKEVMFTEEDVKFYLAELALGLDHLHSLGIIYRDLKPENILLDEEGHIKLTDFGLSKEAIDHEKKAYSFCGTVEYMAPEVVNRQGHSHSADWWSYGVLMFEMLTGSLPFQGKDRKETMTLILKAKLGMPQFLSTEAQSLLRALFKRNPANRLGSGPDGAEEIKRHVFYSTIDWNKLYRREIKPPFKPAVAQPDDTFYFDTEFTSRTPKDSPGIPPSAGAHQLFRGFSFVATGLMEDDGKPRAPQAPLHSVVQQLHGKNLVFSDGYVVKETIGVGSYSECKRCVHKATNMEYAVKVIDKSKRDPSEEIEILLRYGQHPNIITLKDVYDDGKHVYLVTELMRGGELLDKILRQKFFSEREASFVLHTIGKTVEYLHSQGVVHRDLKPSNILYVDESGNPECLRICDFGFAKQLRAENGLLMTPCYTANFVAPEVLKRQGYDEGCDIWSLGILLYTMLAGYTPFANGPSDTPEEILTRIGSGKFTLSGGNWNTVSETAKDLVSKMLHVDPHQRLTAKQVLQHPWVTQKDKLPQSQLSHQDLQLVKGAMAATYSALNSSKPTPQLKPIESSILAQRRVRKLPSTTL

Compound	remaining activity at 10 µM (PKD1; [1])	residual kinase activity PKD1 (PKD1)	remaining activity at 10 µM (RSK1; [2])	residual kinase activity RSK1 (RSK1)	remaining activity at 1 µM (PKD1; [3])	remaining activity at 10 µM (PKD1; [3])	remaining activity at 1 µM (RSK1; [4])	remaining activity at 10 µM (RSK1; [4])
O=C(NCCCNc1nc(Nc2cccc(F)c2)ncc1Br)C1CCC1 [Compound A, cyclobutanecarboxylic acid {3-[5-bromo-2-(3-fluoro-phenylamino)-pyrimidin-4-ylamino]-propyl}-amide, reference compound]	1%	7%	9%	27%				
O=C(NCCCNc1nc(Nc2cccc(F)c2)ncc1C1CC1)C1CCC1 [Example 23, Cyclobutanecarboxylic acid {3-[5-cyclopropyl-2-(3-fluoro-phenylamino)-pyrimidin-4-ylamino]-propyl}-amide]	53%	68%	24%	47%	68%	53%	47%	24%
O=C(NCCCNc1nc(Nc2cccc(N3CCCC3=O)c2)ncc1C1CC1)c1cccs1 [Example 47, Thiophene-2-carboxylic acid (3-{5-cyclopropyl-2-[3-(2-oxo-pyrrolidin-1-yl)-phenylamino]-pyrimidin-4-ylamino}-propyl)-amide. Hydrochloride salt]					57%	52%	45%	10%
O=C(NCCCNc1nc(Nc2cccnc2)ncc1C1CC1)c1cccs1 [Example 50, Thiophene-2-carboxylic acid {3-[5-cyclopropyl-2-(pyridin-3-ylamino)-pyrimidin-4-ylamino]-propyl}-amide]					60%	36%	49%	20%
